Source: PubChem BioAssay AID1963967 (Molecular Pharmacology Branch, DTP, NCI, 2024)

System: 855422-203-R-J1-PDC spheroids with HUVEC/MSC, viability
Assay: Anticancer human tumor 855422-203-R-J1-PDC patient-derived bladder carcinoma cell line growth inhibition [PI3K]
Details: for IC50: curve of first compound; for viability, T/C: stronger effect = lower value
Procedure, shortened: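 We assembled tumor spheroids that included a stromal compartment of HUVEC and MSCs, then exposed them to targeted agents alone and together with PI3K pathway inhibitors. Concentration series descended by half-log from clinically achievable Cmax levels. Viability served as the endpoint.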

[1] = second compound 0.0316 µM, first compound 0.0316 µM
[2] = second compound 0.0316 µM, first compound 0.1 µM
[3] = second compound 0.0316 µM, first compound 0.316 µM
[4] = second compound 0.0316 µM, first compound 1 µM
[5] = second compound 0.0316 µM, first compound 3.16 µM
[6] = second compound 0.0316 µM, first compound 10 µM
[7] = second compound 0.1 µM, first compound 0.0316 µM
[8] = second compound 0.1 µM, first compound 0.1 µM
[9] = second compound 0.1 µM, first compound 0.316 µM
[10] = second compound 0.1 µM, first compound 1 µM
[11] = second compound 0.1 µM, first compound 3.16 µM
[12] = second compound 0.1 µM, first compound 10 µM
[13] = second compound 0.316 µM, first compound 0.0316 µM
[14] = second compound 0.316 µM, first compound 0.1 µM
[15] = second compound 0.316 µM, first compound 0.316 µM
[16] = second compound 0.316 µM, first compound 1 µM
[17] = second compound 0.316 µM, first compound 3.16 µM
[18] = second compound 0.316 µM, first compound 10 µM
[19] = second compound 1 µM, first compound 0.0316 µM
[20] = second compound 1 µM, first compound 0.1 µM
[21] = second compound 1 µM, first compound 0.316 µM
[22] = second compound 1 µM, first compound 1 µM
[23] = second compound 1 µM, first compound 3.16 µM
[24] = second compound 1 µM, first compound 10 µM
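Also: agents incubated with spheroids for one week before read-out.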
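For viability, T/C in this document: 100% = DMSO vehicle-treated control wells.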

## CC1(C)CCC(Nc2ncc(C(F)(F)F)c(-c3c[nH]c4c(P(C)(C)=O)c(C#N)ccc34)n2)CN1 (stereo unspecified) + COc1c(OCCCN2CCOCC2)ccc2c3n(c(=NC(=O)c4cnc(N)nc4)nc12)CCN3
Second compound 0.00316 µM
  IC50: < 31.6 nM
Second compound 0.01 µM
  IC50: < 31.6 nM
Second compound 0.0316 µM
  IC50: < 31.6 nM
Second compound 0.1 µM
  IC50: < 31.6 nM
Second compound 0.316 µM
  IC50: < 31.6 nM
Second compound 1 µM
  IC50: < 31.6 nM
Second compound 0.00316 µM, first compound 0.0316 µM
  viability, T/C: 24.9%
Second compound 0.00316 µM, first compound 0.1 µM
  viability, T/C: 20.8%
Second compound 0.00316 µM, first compound 0.316 µM
  viability, T/C: 22.4%
Second compound 0.00316 µM, first compound 1 µM
  viability, T/C: 23.3%
Second compound 0.00316 µM, first compound 3.16 µM
  viability, T/C: 24.3%
Second compound 0.00316 µM, first compound 10 µM
  viability, T/C: 2.48%
Second compound 0.01 µM, first compound 0.0316 µM
  viability, T/C: 21.2%
Second compound 0.01 µM, first compound 0.1 µM
  viability, T/C: 18.6%
Second compound 0.01 µM, first compound 0.316 µM
  viability, T/C: 21.3%
Second compound 0.01 µM, first compound 1 µM
  viability, T/C: 19.8%
Second compound 0.01 µM, first compound 3.16 µM
  viability, T/C: 20.4%
Second compound 0.01 µM, first compound 10 µM
  viability, T/C: 3.49%
[1]
  viability, T/C: 16.7%
[2]
  viability, T/C: 17.2%
[3]
  viability, T/C: 13.9%
[4]
  viability, T/C: 16.9%
[5]
  viability, T/C: 16.6%
[6]
  viability, T/C: 1.53%
[7]
  viability, T/C: 12.7%
[8]
  viability, T/C: 10.7%
[9]
  viability, T/C: 12.4%
[10]
  viability, T/C: 10.1%
[11]
  viability, T/C: 8.84%
[12]
  viability, T/C: 1.32%
[13]
  viability, T/C: 5.48%
[14]
  viability, T/C: 4.79%
[15]
  viability, T/C: 5.47%
[16]
  viability, T/C: 6.03%
[17]
  viability, T/C: 3.06%
[18]
  viability, T/C: 1.28%
[19]
  viability, T/C: 1.83%
[20]
  viability, T/C: 2.45%
[21]
  viability, T/C: 2.02%
[22]
  viability, T/C: 2.08%
[23]
  viability, T/C: 1.22%
[24]
  viability, T/C: 1.25%

## CNC(=O)c1ccc(N2C(=S)N(c3ccc(C#N)c(C(F)(F)F)c3)C(=O)C2(C)C)cc1F + Cc1nc(NC(=O)N2CCCC2C(N)=O)sc1-c1ccnc(C(C)(C)C(F)(F)F)c1
Second compound 0.0316 µM
  IC50: > 10000 nM
Second compound 0.1 µM
  IC50: > 10000 nM
Second compound 0.316 µM
  IC50: > 10000 nM
Second compound 1 µM
  IC50: > 10000 nM
Second compound 3.16 µM
  IC50: 31.6 nM
Second compound 10 µM
  IC50: < 31.6 nM
[1]
  viability, T/C: 109%
[2]
  viability, T/C: 95.3%
[3]
  viability, T/C: 99.1%
[4]
  viability, T/C: 87.4%
[5]
  viability, T/C: 80.7%
[6]
  viability, T/C: 74.5%
[7]
  viability, T/C: 99.7%
[8]
  viability, T/C: 97.8%
[9]
  viability, T/C: 96.7%
[10]
  viability, T/C: 84.8%
[11]
  viability, T/C: 88.1%
[12]
  viability, T/C: 79%
[13]
  viability, T/C: 98.1%
[14]
  viability, T/C: 83.3%
[15]
  viability, T/C: 96.7%
[16]
  viability, T/C: 87.6%
[17]
  viability, T/C: 86.8%
[18]
  viability, T/C: 77.4%
[19]
  viability, T/C: 72.5%
[20]
  viability, T/C: 75.7%
[21]
  viability, T/C: 73.7%
[22]
  viability, T/C: 76.8%
[23]
  viability, T/C: 82.5%
[24]
  viability, T/C: 61.8%
Second compound 3.16 µM, first compound 0.0316 µM
  viability, T/C: 47.4%
Second compound 3.16 µM, first compound 0.1 µM
  viability, T/C: 49.6%
Second compound 3.16 µM, first compound 0.316 µM
  viability, T/C: 44.6%
Second compound 3.16 µM, first compound 1 µM
  viability, T/C: 51.5%
Second compound 3.16 µM, first compound 3.16 µM
  viability, T/C: 54.1%
Second compound 3.16 µM, first compound 10 µM
  viability, T/C: 36.7%
Second compound 10 µM, first compound 0.0316 µM
  viability, T/C: 24.1%
Second compound 10 µM, first compound 0.1 µM
  viability, T/C: 27.6%
Second compound 10 µM, first compound 0.316 µM
  viability, T/C: 24.7%
Second compound 10 µM, first compound 1 µM
  viability, T/C: 31.2%
Second compound 10 µM, first compound 3.16 µM
  viability, T/C: 29.4%
Second compound 10 µM, first compound 10 µM
  viability, T/C: 16.8%

## Cn1cnc2c(F)c(Nc3ccc(Br)cc3Cl)c(C(=O)NOCCO)cc21 + Cc1nc(NC(=O)N2CCCC2C(N)=O)sc1-c1ccnc(C(C)(C)C(F)(F)F)c1
Second compound 0.0316 µM
  IC50: 2250 nM
Second compound 0.1 µM
  IC50: 2580 nM
Second compound 0.316 µM
  IC50: 1350 nM
Second compound 1 µM
  IC50: 111 nM
Second compound 3.16 µM
  IC50: < 9.49 nM
Second compound 10 µM
  IC50: < 9.49 nM
Second compound 0.0316 µM, first compound 0.00949 µM
  viability, T/C: 94%
Second compound 0.0316 µM, first compound 0.03 µM
  viability, T/C: 79.5%
Second compound 0.0316 µM, first compound 0.0949 µM
  viability, T/C: 116%
Second compound 0.0316 µM, first compound 0.3 µM
  viability, T/C: 90.4%
Second compound 0.0316 µM, first compound 0.949 µM
  viability, T/C: 82.1%
Second compound 0.0316 µM, first compound 3 µM
  viability, T/C: 39.2%
Second compound 0.1 µM, first compound 0.00949 µM
  viability, T/C: 96.6%
Second compound 0.1 µM, first compound 0.03 µM
  viability, T/C: 92.9%
Second compound 0.1 µM, first compound 0.0949 µM
  viability, T/C: 89.8%
Second compound 0.1 µM, first compound 0.3 µM
  viability, T/C: 82.1%
Second compound 0.1 µM, first compound 0.949 µM
  viability, T/C: 79.4%
Second compound 0.1 µM, first compound 3 µM
  viability, T/C: 45.1%
Second compound 0.316 µM, first compound 0.00949 µM
  viability, T/C: 85.9%
Second compound 0.316 µM, first compound 0.03 µM
  viability, T/C: 78%
Second compound 0.316 µM, first compound 0.0949 µM
  viability, T/C: 89.9%
Second compound 0.316 µM, first compound 0.3 µM
  viability, T/C: 75.7%
Second compound 0.316 µM, first compound 0.949 µM
  viability, T/C: 61.6%
Second compound 0.316 µM, first compound 3 µM
  viability, T/C: 25%
Second compound 1 µM, first compound 0.00949 µM
  viability, T/C: 53.1%
Second compound 1 µM, first compound 0.03 µM
  viability, T/C: 59.4%
Second compound 1 µM, first compound 0.0949 µM
  viability, T/C: 45.1%
Second compound 1 µM, first compound 0.3 µM
  viability, T/C: 44.3%
Second compound 1 µM, first compound 0.949 µM
  viability, T/C: 36.2%
Second compound 1 µM, first compound 3 µM
  viability, T/C: 10.2%
Second compound 3.16 µM, first compound 0.00949 µM
  viability, T/C: 33.7%
Second compound 3.16 µM, first compound 0.03 µM
  viability, T/C: 32.9%
Second compound 3.16 µM, first compound 0.0949 µM
  viability, T/C: 21.7%
Second compound 3.16 µM, first compound 0.3 µM
  viability, T/C: 21.2%
Second compound 3.16 µM, first compound 0.949 µM
  viability, T/C: 16%
Second compound 3.16 µM, first compound 3 µM
  viability, T/C: 6%
Second compound 10 µM, first compound 0.00949 µM
  viability, T/C: 22.9%
Second compound 10 µM, first compound 0.03 µM
  viability, T/C: 11.8%
Second compound 10 µM, first compound 0.0949 µM
  viability, T/C: 12.7%
Second compound 10 µM, first compound 0.3 µM
  viability, T/C: 8.91%
Second compound 10 µM, first compound 0.949 µM
  viability, T/C: 5.5%
Second compound 10 µM, first compound 3 µM
  viability, T/C: 1.88%
